Here are results for three compounds from patent EP0258175A2, “5-hetero- or aryl-substituted-imidazo[2,1-a]isoquinolines” (SANDOZ AG, priority 1986, dated 1988).

Experiment [1] deals with Abelson 8.1 tumor cells. The experiment in a line: Tumor cell cytotoxicity Test (TCCT) (Test D), alkaline phosphatase readout. In kind it is cell-based. The conditions noted are these: at 5µg. Here is the method: Test D) Tumor cell cytotoxicity Test (TCCT).
In flat bottom microtiter plates (Nunc Roskieide, Denmark) were placed Abelson 8.1 tumor cells in DMEM + 10% fetal calf serum and the tumor cell-containing plates were incubated with 1,3, and 5µg of the test compound for a period of 6 to 72 hours. The number of viable tumor cells present was determined by measuring the alkaline phosphatase in the following manner. The tumor cell plates were centrifuged (500 x g.) for ten minutes and the supernatant flicked off. Without further washing, 100 ul of buffer containing 20 ul of diethanolamine, 2uM of MgCl₂ · 6H₂O, 2.5 uM of p-nitrophenylphosphate and 10 mg Triton X-100 were added. The samples were incubated for 60 minutes at room temperature and the enzymatic reaction was terminated by the addition of 100 ul of 0.5N NaOH. The absorbance was then measured at […] using a Titertek Multiskan apparatus.

Experiment [2] concerns Abelson 8.1 tumor cells. The experiment in a line: Influence on Cytotoxicity of ET-18-OCH₃ test (IC-ET test) (Test E). Format: cell-based, mice. The conditions noted are these: at 5 µg, macrophages pre-incubated with 10µg ET-18-OCH₃, values recorded after 72 hours, ET-18-OCH₃ alone set at 100%. Here is the method:
Test E) Influence on Cytotoxicity of ET-18-OCH₃ test (IC-ET test).
Bone marrow cell macrophages (10⁵/well)obtained from [BALB/CX57/BL₆]Fl mice were incubated with 10µg of 1-octadecyl-2-methoxy-3-phosphoryl choline (ET-18-OCH₃) for 24 hours in flat bottom microtiter plates (Nunc Roskieide,Denmark), after which time they are centrifuged and washed once. Abelson 8.1 tumor cells in DMEM + 10% fetal calf serum and 1,3 and 5ug of the test compound were then added to the plates. With the cytotoxicity of ET-18-OCH₃ (10ug) alone set at 100%, the inhibition or enhancement of the cytotoxic effect, as measured by an alkaline phosphatase assay, was determined and values recorded after 72 hours for 1,3 and 5ug of the test substance.

The next experiment relates to Meth A sarcoma cells. The experiment is described as follows: Meth A fibrosarcoma implant in mice (Test F): tumor growth and survivors. In kind it is in vivo. The conditions noted are these: 50µg per day p.o. for 28 days, ten CBF₁ mice implanted with 7.3 x 10⁶ Meth A sarcoma cells. From the text: Test F) Meth A fibrosarcoma cells were induced in BALB/C mice by administering methylcholanthrene according to the procedure of Old, et al. (L.J. Old, E.A. Boyse, D.A. Clarke, and E. Carswell, Ann. N.Y. Acad. Sci., 101, 80 (1962). These tumor cells were harvested from the peritoneal cavity 10 to 12 days after administration of methylcholanthrene. Ten CBF₁ mice of 10-12 week age were each implanted with 7.3 x 10⁶ Meth A sarcoma cells to serve as control. A second group of ten CBF₁ mice were each implanted with 7.3 x 10⁶ Meth A sarcoma cells and on day one after implant each mouse was treated p.o. with 5-50µg of the test compound per day for a total of twenty or twenty-seven days. Tumor growth and survivors were assayed on days 7, 14, 21 and 28 after tumor implantation.

For experiment [3], the target named is T1, Human Platelet PAF Receptor (Homo sapiens, UniProt P25105).
T1 construct: from tissue; host or cells: washed human platelets from donor blood
T1 sequence (P25105 whole entry): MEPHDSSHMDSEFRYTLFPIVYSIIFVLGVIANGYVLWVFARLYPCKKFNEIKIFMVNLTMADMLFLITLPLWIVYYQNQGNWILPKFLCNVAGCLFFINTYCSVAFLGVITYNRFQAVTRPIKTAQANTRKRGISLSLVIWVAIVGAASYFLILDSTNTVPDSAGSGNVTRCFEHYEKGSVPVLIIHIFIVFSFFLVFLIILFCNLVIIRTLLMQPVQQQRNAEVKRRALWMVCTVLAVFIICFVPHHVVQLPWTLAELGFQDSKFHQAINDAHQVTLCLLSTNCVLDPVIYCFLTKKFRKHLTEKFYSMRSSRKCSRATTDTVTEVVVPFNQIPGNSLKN
The experiment in a line: Human Platelet PAF Receptor Assay test (Test A): inhibition of specific binding of [³H]-PAF to platelets. The conditions noted are these: inhibition of specific binding of [³H]-PAF to human platelets, read-out: IC₅₀. The procedure: The compounds of formula I are indicated for use as platelet activating factor receptor antagonists as indicated by their ability to inhibit specific binding of [³H]-PAF to platelets according to the Human Platelet PAF Receptor Assay test (Test A) as follows: Human blood is obtained by venipuncture of healthy, human donors into an anti-coagulant mixture containing 3.15% of trisodium citrate and 20 µg/ml of Prostaglandin I₂ (PGI₂) in a ratio of blood to anti-coagulant of 9:1. Platelet rich plasma (PRP) is prepared by centrifugation (250 x g) of the blood for 20 minutes at room temperature. […] All of the tests are conducted in duplicate and each of the test compounds is evaluated at concentrations of 100, 50, 1 and 0.1 µM. […] An additional 2 ml of Scintiverse II is then added to the vials and, after mixing, the vials are counted for 1 minute in a liquid scintillation spectrometer. The amount of specific binding is calculated as the difference in cpm between the total bound [³H]-PAF and non-specifically bound [³H]-PAF. The percent inhibition of specific binding is determined by dividing the cpm specifically bound in the presence of the test compound by the cpm specifically bound in total, multiplying by 100 and then subtracting from 100. […]

Experiment [4] relates to PAF-mediated bronchoconstriction. The experiment is described as follows: PAF-induced Pulmonary Inflation Pressure (PIP) Increase test (Test B). In kind it is in vivo. The conditions noted are these: Cavia porcellus, po, guinea pigs, PAF 100 ng/kg i.v., maximal PIP increase, read-out: ED₅₀. Here is the method:
Furthermore, in view of their potential as PAF receptor antagonists, the compounds of formula I are indicated for use as inhibitors of PAF-mediated bronch oconstriction, which property was evaluated by the PAF-induced Pulmonary Inflation Pressure (PIP) Increase test (Test B) as follows:
Male guinea pigs, weighing between 300 and 400 g, are anesthetized, after which time trachea tube, carotid and jugular cathers are inserted. The test animal is then force ventilated employing a small animal Harvard respirator and the resistance to lung inflation (PIP) is measured utilizing a pressure transducer and recorder. The test compound is administered either orally at 30 minutes up to 4 hours prior to or parenterally e.g. intravenously (jugular) etc. at 5 minutes up to 4 hours prior to the introduction of PAF. […] Any blood pressure measurements taken are recorded from a transducer attached to the carotid catheter. […] A reading at 15 minutes after the administration of PAF is termed the endpoint PIP. The effect of the test compound on the PIP response is determined by the difference between the percent increase in maximal PIP over baseline for the test animal to which has been administered PAF and the test compound compared to the test animal to which only PAF has been administered.

For experiment [5], the system named is PAF-mediated extravasation. The experiment is described as follows: PAF-induced Extravasation test (Test C), hemoconcentration (hematocrit). As to conditions: Cavia porcellus, po, guinea pigs, PAF 100 ng/kg i.v., inhibition of increase in hematocrit, read-out: ED₅₀. In kind it is in vivo. Here is the method:
Still further, the compounds of formula I are indicated for use as inhibitors of PAF-mediated extravasation (the extrusion of plasma from the lumen of the blood vessels into the vessel wall and surrounding tissues) measured as a function of hemoconcentration according to the PAF-induced Extravasation test(Test C) as follows: Male guinea pigs, weighing between 300 and 400 g, are anesthetized, after which time a femoral catheter is inserted. The test compound is administered either orally or parenterally one hour up to 4 hours prior to the introduction of PAF. The PAF (C₁₈-Sandoz, Hanover) is dissolved in Tris-Tyrode's bovine serum albumin buffer and administered intravenously (jugular) at 100 ng/kg. […] The tubes are then centrifuged and the percent of packed red blood cells (hematocrit) is measured (PAF induces a maximal increase in hematocrit at 5 to 7 minutes subsequent to the injection of PAF). The percent increase in hematocrit over the value prior to the injection of PAF is calculated. The hemacrotit values obtained with the test compound are compared to the hemoconcentration values obtained with PAF alone and are expressed as percent inhibition of percent increase in hematocrit.

Where a name gives a salt, the structure may show the parent alone.

For `C=CCN(CC=C)Cc1ccc(C2=Cc3ccccc3C3=NCCN23)cc1` [Example 3BB, 5-(4ʹ-diallylaminomethylphena]isoquinoline dihydrochloride], the figures for the inh. in the experiment on Abelson 8.1 tumor cells [1] and with Abelson 8.1 tumor cells [2] were 99% and 97%, respectively.
In the case of `C1=C(c2ccc(CN3CCCCC3)cc2)N2CCN=C2c2ccccc21.Cl.Cl` [Example 3N, 5-(4ʹ-piperidinomethylphenyl)-2,3-dihydroimidazo[2,1-a]isoquinoline dihydrochloride], the Tumor growth entry with Meth A sarcoma cells was “no evidence of the presence of any tumors”. Also, the survivors result in the experiment with Meth A sarcoma cells (none of the control group survived) was “all of the animals”.
Turning to `COc1cc(CCc2ccc(C3=Cc4ccccc4C4=NCCN34)cc2)cc(OC)c1OC.Cl` [Example 7E, 5-[4ʹ-(3,4,5-trimethoxyphenylethyl)phenyl]-2,3-dihydroimidazo [2,1-a]isoquinoline hydrochloride], the IC50 in experiment [3] was found to be 60 nM. In addition, the ED50 in experiment [4] was determined as 5 mg/kg; in experiment [5], 4.2 mg/kg.
